This is an account of results in ChEMBL document CHEMBL5335822, “Identification of benzothiazole derived monosaccharides as potent, selective, and orally bioavailable inhibitors of human and mouse galectin-3; a rare example of using a S···O binding interaction for drug design” (Bioorg Med Chem, 2024).

For series [1], the target named is Galectin-3 (Homo sapiens, UniProt P17931). Briefly: Inhibition of human Galectin-3.
A short description of series [2]: Permeability of the compound at pH 5.5 incubated for 4 hrs by PAMPA based SpectraMax UV-plate reader analysis. It is filed as ADME. The note with it: read-out: permeability.
In series [3] the target is Galectin-3 (Mus musculus, UniProt P16110). The experiment in a line: Inhibition of mouse Galectin-3.
Series [4] can be described thus: Permeability of the compound at pH 7.4 incubated for 4 hrs by PAMPA based SpectraMax UV-plate reader analysis. The format is ADME. The note with it: read-out: permeability.
Series [5] is filed under the species Homo sapiens. The experiment in a line: Selectivity ratio of IC50 for inhibition of human Galectin-1 to IC50 for inhibition of human Galectin-3.
For another series, the target named is Galectin-1 (Homo sapiens, UniProt P09382). The experiment in a line: Inhibition of human Galectin-1.
Another series has as its target Galectin-9 (Homo sapiens, UniProt O00182). Briefly: Inhibition of human Galectin-9.
For series [6], the species on record is Homo sapiens. Briefly: Selectivity ratio of IC50 for inhibition of human Galectin-9 to IC50 for inhibition of human Galectin-3.
The nature of series [7]: AUC in mouse at 10 mg/kg,po administration. The format is ADME, organism-based. Also on record: dose 10 mg/kg, route po. The note with it: in vivo.
Series [8] can be described thus: Cmax in mouse at 10 mg/kg,po administration. The format is ADME, organism-based. On the set-up: dose 10 mg/kg, route po. The conditions noted are these: in vivo.
Series [9] is described as follows: Clearance in mouse at 10 mg/kg,po administration. The conditions noted are these: in vivo. The format is ADME, organism-based.
Series [10] in a line: Volume of distribution at steady state in mouse at 10 mg/kg,po administration. The format is ADME, organism-based. The conditions noted are these: in vivo.
Series [11] can be described thus: Oral bioavailability in mouse at 10 mg/kg administration. The format is ADME, organism-based. The conditions noted are these: in vivo.

Chain of Galectin-1 (P09382 whole entry): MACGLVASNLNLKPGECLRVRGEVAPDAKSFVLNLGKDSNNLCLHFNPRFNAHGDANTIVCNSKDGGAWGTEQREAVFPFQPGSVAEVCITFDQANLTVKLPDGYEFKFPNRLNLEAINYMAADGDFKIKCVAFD
Chain of Galectin-3 (Mus musculus, UniProt P16110) (P16110 whole entry): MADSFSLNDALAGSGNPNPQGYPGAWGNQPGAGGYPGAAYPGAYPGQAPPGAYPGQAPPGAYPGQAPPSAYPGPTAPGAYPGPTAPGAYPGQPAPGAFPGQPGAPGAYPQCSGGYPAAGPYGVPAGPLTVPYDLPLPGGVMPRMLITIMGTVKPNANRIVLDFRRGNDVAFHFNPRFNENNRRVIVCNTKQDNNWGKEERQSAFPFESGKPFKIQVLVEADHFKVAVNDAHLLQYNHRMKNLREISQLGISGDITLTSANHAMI
Chain of Galectin-9 (O00182 whole entry): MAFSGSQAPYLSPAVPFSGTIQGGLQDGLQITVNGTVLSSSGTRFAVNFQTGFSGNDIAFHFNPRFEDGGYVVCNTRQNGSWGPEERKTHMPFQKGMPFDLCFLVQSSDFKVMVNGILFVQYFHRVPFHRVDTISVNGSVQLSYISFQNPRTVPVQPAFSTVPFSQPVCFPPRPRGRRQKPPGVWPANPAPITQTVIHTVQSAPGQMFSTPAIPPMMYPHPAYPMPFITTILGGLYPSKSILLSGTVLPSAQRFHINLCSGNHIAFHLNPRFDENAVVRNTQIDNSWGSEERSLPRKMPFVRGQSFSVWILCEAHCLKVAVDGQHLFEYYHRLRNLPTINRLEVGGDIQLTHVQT
Chain of Galectin-3 (Homo sapiens, UniProt P17931) (P17931 whole entry): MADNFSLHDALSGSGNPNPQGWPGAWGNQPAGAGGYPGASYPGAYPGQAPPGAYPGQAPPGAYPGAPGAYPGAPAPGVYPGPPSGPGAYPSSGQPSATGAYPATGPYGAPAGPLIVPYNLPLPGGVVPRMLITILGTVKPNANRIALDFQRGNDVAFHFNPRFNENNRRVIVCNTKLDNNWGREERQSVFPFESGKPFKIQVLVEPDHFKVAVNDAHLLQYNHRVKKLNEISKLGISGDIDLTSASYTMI

As for `Cc1nc([C@@H]2O[C@H](CO)[C@H](O)[C@H](n3cc(-c4cc(F)c(Cl)c(F)c4)nn3)[C@H]2O)n(-c2ccc3ncsc3c2)n1`, the IC50 was 18 nM on Galectin-3 [1] and 151 nM against Galectin-3 [3]. Further, the Papp at 4 h in [2] is 10.4 ×10⁻⁶ cm/s.
For the molecule `Cc1nc([C@@H]2O[C@H](CO)[C@H](O)[C@H](n3cc(-c4cc(F)c(F)c(F)c4)nn3)[C@H]2O)n(-c2ccc3ncsc3c2)n1`, the 50% inhibitory concentration (IC50) against Galectin-3 [1] came to 28 nM; against Galectin-3 [3], 536 nM. The values for the Papp at 4 h in [2] and in series [4] were 1.5 ×10⁻⁶ cm/s and 3.9 ×10⁻⁶ cm/s, respectively.
As for `Cc1nc([C@@H]2O[C@H](CO)[C@H](O)[C@H](n3cc(-c4ccc(Cl)c(F)c4F)nn3)[C@H]2O)n(-c2ccc3ncsc3c2)n1`, the Ratio IC50 stood at 435 in the series listed under Homo sapiens [5] and 342 in the series listed under Homo sapiens [6]. For the same molecule, the half-inhibitory concentration (IC50) against Galectin-1 came to 3830 nM; at Galectin-3 [1], 8.8 nM; against Galectin-9 it was 3010 nM; against Galectin-3 [3], 86 nM. The Papp at 4 h in [2] came to 24.1 ×10⁻⁶ cm/s; in [4] it was 16.3 ×10⁻⁶ cm/s.
Take `Cc1nc2ccc(N(C)C(=O)[C@@H]3O[C@H](CO)[C@H](O)[C@H](n4cc(-c5cc(F)c(F)c(F)c5)nn4)[C@H]3O)cc2s1`: the values for the Papp at 4 h in series [2] and in series [4] were 1.9 ×10⁻⁶ cm/s and 0.8 ×10⁻⁶ cm/s, respectively. The IC50 against Galectin-3 [3] amounted to 3510 nM.
Consider `Cc1nc([C@@H]2O[C@H](CO)[C@H](O)[C@H](n3cc(-c4ccc(Br)c(F)c4F)nn3)[C@H]2O)n(-c2ccc3ncsc3c2)n1`, for which the Ratio IC50 was 361 in the series filed under Homo sapiens [5] and 293 in the series filed under Homo sapiens [6]. The IC50 came out at 2600 nM against Galectin-1, 7.2 nM at Galectin-3 [1], 2110 nM at Galectin-9 and 45 nM on Galectin-3 [3]. The same molecule showed an AUC in [7] of 3 µM·h. Also, the Papp at 4 h worked out at 30.7 ×10⁻⁶ cm/s in [2] and 30.1 ×10⁻⁶ cm/s in [4]. The same molecule registered a maximum concentration (Cmax) in series [8] of 600 nM.
Consider `CO[C@@H]1[C@@H](n2cc(-c3ccc(Br)c(F)c3F)nn2)[C@@H](O)[C@@H](CO)O[C@H]1c1nc(C)nn1-c1ccc2ncsc2c1`, for which the Ratio IC50 was 271 in the series listed under Homo sapiens [5] and 186 in the series filed under Homo sapiens [6]. Also, the results for the IC50 against Galectin-1, at Galectin-9 and against Galectin-3 [3] were 3520 nM, 2420 nM and 61 nM, respectively. For the same molecule, the AUC in series [7] came out at 8.7 µM·h. Moreover, in series [2], the Papp at 4 h was found to be 104 ×10⁻⁶ cm/s. For the same molecule, the peak level in series [8] (Cmax) was 1800 nM.
In the case of `CO[C@@H]1[C@@H](n2cc(-c3cc(F)c(Br)c(F)c3)nn2)[C@@H](O)[C@@H](CO)O[C@H]1c1nc(C)nn1-c1ccc2ncsc2c1`, the IC50 against Galectin-3 [1] came to 30 nM; on Galectin-3 [3] it was 150 nM.
In the case of `CO[C@@H]1[C@@H](n2cc(-c3cc(F)c(F)c(F)c3)nn2)[C@@H](O)[C@@H](CO)O[C@H]1C(=O)N(C)c1ccc2nc(C)sc2c1`, the Papp at 4 h in series [2] was 29.8 ×10⁻⁶ cm/s; in series [4] it was 18.6 ×10⁻⁶ cm/s. This molecule registered an IC50 on Galectin-3 [3] of 2510 nM.
Regarding `Cc1nc([C@@H]2O[C@H](CO)[C@H](O)[C@H](n3cc(-c4cc(F)c5ccccc5c4)nn3)[C@H]2O)n(-c2ccc3ncsc3c2)n1`, the IC50 on Galectin-3 [1] came to 22 nM; at Galectin-3 [3], 179 nM. The Papp at 4 h in [2] was 9 ×10⁻⁶ cm/s; in series [4], 13.7 ×10⁻⁶ cm/s.
Turning to `CO[C@H]1C(C(=O)N(C)c2ccc3ncsc3c2)O[C@H](CO)[C@H](O)[C@@H]1n1cc(-c2ccc(Cl)c(F)c2F)nn1` (single isomer, unassigned), the apparent clearance CL/F in [9] stood at 12 mL/min/kg. Also, the IC50 against Galectin-1 turned out to be 1580 nM; at Galectin-9, 2750 nM; at Galectin-3 [3] it was 169 nM. Also, the AUC in [7] came to 13 µM·h. In addition, the values for the Papp at 4 h in [2] and in series [4] were 29.4 ×10⁻⁶ cm/s and 29.5 ×10⁻⁶ cm/s, respectively. Besides, the Vdss in series [10] amounted to 2.1 L/kg. Besides, the Cmax in [8] turned out to be 3100 nM. The molecule further gave a bioavailability in series [11] of 52%.
As to `Cc1nc2ccc(-n3ncnc3[C@@H]3O[C@H](CO)[C@H](O)[C@H](n4cc(-c5cc(F)c(F)c(F)c5)nn4)[C@H]3O)cc2s1`, the IC50 was 63 nM at Galectin-3 [1] and 1220 nM against Galectin-3 [3].
`CO[C@@H]1[C@@H](n2cc(-c3cc(F)c(Cl)c(F)c3)nn2)[C@@H](O)[C@@H](CO)O[C@H]1C(=O)N(C)c1ccc2ncsc2c1`: the Papp at 4 h stood at 16 ×10⁻⁶ cm/s in series [2] and 16.7 ×10⁻⁶ cm/s in [4]. This molecule showed a half-maximal inhibitory concentration (IC50) at Galectin-3 [3] of 178 nM.
For `Cc1nc([C@@H]2O[C@H](CO)[C@H](O)[C@H](n3cc(-c4cc(F)c(Br)c(F)c4)nn3)[C@H]2O)n(-c2ccc3ncsc3c2)n1`, the Papp at 4 h in [2] amounted to 5.2 ×10⁻⁶ cm/s; in series [4], 4.8 ×10⁻⁶ cm/s. Besides, the IC50 against Galectin-3 [3] is 144 nM.
As for `CO[C@@H]1[C@@H](n2cc(-c3ccc(Br)c(F)c3F)nn2)[C@@H](O)[C@@H](CO)O[C@H]1C(=O)N(C)c1ccc2ncsc2c1`, the Papp at 4 h came out at 27.9 ×10⁻⁶ cm/s in series [2] and 26.9 ×10⁻⁶ cm/s in series [4]. This molecule also yielded an IC50 at Galectin-3 [3] of 95 nM.
`CCN(C(=O)[C@@H]1O[C@H](CO)[C@H](O)[C@H](n2cc(-c3cc(F)c(Cl)c(F)c3)nn2)[C@H]1OC)c1ccc2ncsc2c1` displayed an IC50 against Galectin-3 [3] of 429 nM. That is a sub-micromolar value.
`CO[C@@H]1[C@@H](n2cc(-c3cc(F)c(Br)c(F)c3)nn2)[C@@H](O)[C@@H](CO)O[C@H]1C(=O)N(C)c1ccc2ncsc2c1`: the Papp at 4 h in series [2] amounted to 57.8 ×10⁻⁶ cm/s; in series [4] it was 53.8 ×10⁻⁶ cm/s. The IC50 against Galectin-3 [3] turned out to be 206 nM.
`Cc1nc2cc(C)c(-n3ncnc3[C@@H]3O[C@H](CO)[C@H](O)[C@H](n4cc(-c5cc(F)c(F)c(F)c5)nn4)[C@H]3O)cc2s1`: the IC50 against Galectin-3 [1] stood at 52 nM; against Galectin-3 [3], 1200 nM.
On to `CO[C@@H]1[C@@H](n2cc(-c3cc(F)c(F)c(F)c3)nn2)[C@@H](O)[C@@H](CO)O[C@H]1C(=O)N(C)c1ccc2ncsc2c1`, for which the 50% inhibitory concentration (IC50) against Galectin-1 is 3250 nM; against Galectin-9 it was 9970 nM; at Galectin-3 [3] it was 504 nM. The values for the Papp at 4 h in series [2] and in series [4] were 14.4 ×10⁻⁶ cm/s and 17.2 ×10⁻⁶ cm/s, respectively.
For the molecule `CO[C@@H]1[C@@H](n2cc(-c3ccc(Cl)c(F)c3F)nn2)[C@@H](O)[C@@H](CO)O[C@H]1c1nc(C)nn1-c1ccc2ncsc2c1`, the CL/F in series [9] was found to be 8 mL/min/kg. The Ratio IC50 in the series filed under Homo sapiens [5] came out at 247; in the series listed under Homo sapiens [6] it was 321. In addition, the IC50 on Galectin-1 stood at 2720 nM; on Galectin-3 [1] it was 11 nM; against Galectin-9, 3530 nM; against Galectin-3 [3] it was 84 nM. The molecule also gave an exposure (AUC) in [7] of 14 µM·h. The values for the Papp at 4 h in series [2] and in [4] were 73.1 ×10⁻⁶ cm/s and 80.2 ×10⁻⁶ cm/s, respectively. This molecule had a Vdss in [10] of 1.8 L/kg. Further, the Cmax in series [8] was determined as 4300 nM. In [11], this molecule registered a bioavailability of 40%.
`OC[C@H]1O[C@@H](c2ncnn2-c2ccc3ncsc3c2)[C@H](O)[C@@H](n2cc(-c3cc(F)c(F)c(F)c3)nn2)[C@H]1O`: the half-maximal inhibitory concentration (IC50) worked out at 37 nM on Galectin-3 [1] and 939 nM at Galectin-3 [3].
For `CO[C@@H]1[C@@H](n2cc(-c3cc(F)c(Cl)c(F)c3)nn2)[C@@H](O)[C@@H](CO)O[C@H]1C(=O)Nc1ccc2ncsc2c1`, the IC50 was above 10000 nM at Galectin-3 [1] and above 30000 nM against Galectin-3 [3].
`CO[C@@H]1[C@@H](n2cc(-c3cc(F)c(Cl)c(F)c3)nn2)[C@@H](O)[C@@H](CO)O[C@H]1c1nc(C)nn1-c1ccc2ncsc2c1`: the Papp at 4 h in series [2] stood at 59.1 ×10⁻⁶ cm/s. Moreover, inhibition against Galectin-3 [3] was half-maximal at 150 nM (IC50).
With `Cc1nc2cc(Cl)c(-n3ncnc3[C@@H]3O[C@H](CO)[C@H](O)[C@H](n4cc(-c5cc(F)c(F)c(F)c5)nn4)[C@H]3O)cc2s1`, the values for the 50% inhibitory concentration (IC50) on Galectin-3 [1] and at Galectin-3 [3] were 71 nM and 1310 nM, respectively.
